Laboratory results: patent US12011444B2, “N-substituted indole derivatives as PGE2 receptor modulators” (Idorsia Pharmaceuticals Ltd, priority 2015, dated 2024)

Columns and labels:
PTGER2 (EP2) = PTGER2 (EP2) (Homo sapiens (Human), UniProt P43116); assay: hEP2 b-arrestin assay (PathHunter HEK 293 PTGER2 b-arrestin cells); assay type: cell-based
Procedure, shortened: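 HEK293 cells expressing ProLink-tagged EP2 and EA-fused β-arrestin 2 (enzyme fragment complementation) were seeded 24 h, pre-incubated with compound 15 min at 37 °C, then stimulated with 5 μM PGE2 (final) for 120 min.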

PTRGER4 (EP4) = PTRGER4 (EP4) (Homo sapiens (Human), UniProt P35408); assay: hEP4 b-arrestin assay (PathHunter HEK 293 PTGER4 b-arrestin cells); assay type: cell-based
Procedure, shortened: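 Stably transfected HEK293 cells carrying EP4–ProLink and β-arrestin 2–EA (β-gal fragment complementation), pre-incubated with compound 15 min at 37 °C, then stimulated with PGE2 (20 nM final) for 120 min at 37 °C. Chemiluminescence read after 1 h detection reagent at room temperature; activity per concentration expressed as percent of DMSO control.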

[1] = hEP2 b-arrestin assay (values without asterisk)
[2] = hEP4 b-arrestin assay (values without asterisk)
[3] = antagonistic activity on hEP2, mean where measured multiple times
[4] = antagonistic activity on hEP4, mean where measured multiple times

Chain of PTRGER4 (EP4) (P35408 whole entry, looked up, the tested form may be a part): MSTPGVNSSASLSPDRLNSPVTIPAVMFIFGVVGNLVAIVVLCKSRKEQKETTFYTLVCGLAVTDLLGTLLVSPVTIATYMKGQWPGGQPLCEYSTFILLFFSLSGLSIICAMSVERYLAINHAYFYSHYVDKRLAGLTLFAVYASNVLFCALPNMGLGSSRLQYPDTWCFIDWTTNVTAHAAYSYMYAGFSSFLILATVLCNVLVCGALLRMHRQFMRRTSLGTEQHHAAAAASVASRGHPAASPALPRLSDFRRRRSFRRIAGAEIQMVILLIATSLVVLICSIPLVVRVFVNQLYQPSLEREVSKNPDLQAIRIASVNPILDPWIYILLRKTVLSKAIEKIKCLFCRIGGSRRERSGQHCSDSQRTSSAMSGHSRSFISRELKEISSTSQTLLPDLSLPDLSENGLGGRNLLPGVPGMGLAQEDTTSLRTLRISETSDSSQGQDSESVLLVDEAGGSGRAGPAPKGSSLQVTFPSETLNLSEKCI
Chain of PTGER2 (EP2) (P43116 whole entry, the tested form may be a part): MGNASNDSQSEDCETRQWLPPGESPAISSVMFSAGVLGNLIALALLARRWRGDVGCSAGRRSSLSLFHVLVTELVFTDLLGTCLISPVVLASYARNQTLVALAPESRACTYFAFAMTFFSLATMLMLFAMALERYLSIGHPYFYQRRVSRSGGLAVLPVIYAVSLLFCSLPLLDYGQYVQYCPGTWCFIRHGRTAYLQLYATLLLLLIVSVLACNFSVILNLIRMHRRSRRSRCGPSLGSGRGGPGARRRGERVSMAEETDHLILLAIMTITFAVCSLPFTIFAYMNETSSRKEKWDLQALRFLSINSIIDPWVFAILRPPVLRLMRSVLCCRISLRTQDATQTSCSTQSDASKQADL

SMILES | IC50 (PTGER2 (EP2); [1]) [nM] | IC50 (PTRGER4 (EP4); [2]) [nM] | IC50 (PTGER2 (EP2); [3]) [nM] | IC50 (PTRGER4 (EP4); [4]) [nM]
CCOc1cc(-c2cc(NCCn3c(C#N)cc4c(OC)cccc43)ncn2)ccc1OCC(=O)O [Example 870, (4-{6-[2-(2-Cyano-4-methoxy-indol-1-yl)-ethylamino]-pyrimidin-4-yl}-2-ethoxy-phenoxy)-acetic acid] | 8 | 12 | – | –
CCOc1cc(-c2cc(NCCn3c(C)cc4c(OC)cc(F)cc43)ncn2)ccc1NCC(=O)O [Example 882, (2-Ethoxy-4-{6-[2-(6-fluoro-4-methoxy-2-methyl-indol-1-yl)-ethylamino]-pyrimidin-4-yl}-phenylamino)-acetic acid] | 11 | 55 | – | –
COc1ccc(F)c2c1cc(C#N)n2CCNc1cc(-c2ccc(OCC(=O)O)c(OC(F)(F)F)c2)ncn1 [Example 828, (4-{6-[2-(2-Cyano-7-fluoro-4-methoxy-indol-1-yl)-ethylamino]-pyrimidin-4-yl}-2-trifluoromethoxy-phenoxy)-acetic acid] | 10 | 11 | – | –
COc1ccc(F)c2c1cc(C#N)n2CCNc1cc(-c2ccc3c(c2)CCNC3=O)ncn1 [Example 990, 7-Fluoro-4-methoxy-1-{2-[6-(1-oxo-1,2,3,4-tetrahydro-isoquinolin-6-yl)-pyrimidin-4-ylamino]-ethyl}-1H-indole-2-carbonitrile] | 3 | 19 | – | –
COc1cccc2c1cc(C)n2CCNc1cc(-c2ccc(-c3ncc[nH]3)cc2)ncn1 [compound 76, {6-[4-(1H-Imidazol-2-yl)-phenyl]-pyrimidin-4-yl}-[2-(4-methoxy-2-methyl-indol-1-yl)-ethyl]-amine] | – | – | 21 | 651
Cc1cc(F)cc2c1cc(C)n2CCNc1cc(-c2ccc(-c3noc(=O)[nH]3)cc2)ncn1 [compound 182] | – | – | 56 | 141
CCc1cc(-c2cc(NCCn3c(C)cc4cc(OC)cc(F)c43)ncn2)sc1C(=O)O [compound 231] | – | – | 185 | 133
CCOc1cc(-c2cc(NCCn3c(C)cc4c(Cl)cc(F)cc43)ncn2)sc1C(=O)O [compound 239] | – | – | 1 | 19
COc1ccc(F)c2c1c(F)c(C#N)n2CCNc1cc(-c2cc(C(F)(F)F)c(C(=O)O)s2)ncn1 [Example 1059, 5-{6-[2-(2-Cyano-3,7-difluoro-4-methoxy-indol-1-yl)-ethylamino]-pyrimidin-4-yl}-3-trifluoromethyl-thiophene-2-carboxylic acid] | 54 | 3 | – | –
CCSc1cc(-c2cc(NCCn3c(C)cc4c(C)ccc(Cl)c43)ncn2)ccc1C(=O)O [compound 146, 4-{6-[2-(7-Chloro-2,4-dimethyl-indol-1-yl)-ethylamino]-pyrimidin-4-yl}-2-ethylsulfanyl-benzoic acid] | – | – | 8 | 334
CCc1cc(-c2cc(NCCn3c(C)cc4c(OC)ccc(F)c43)ncn2)ccc1C(=O)O [compound 290] | – | – | 28 | 102
COc1ccc(F)c2c1cc(C#N)n2CCNc1cc(-c2ccc(O)c(C(F)(F)F)c2)ncn1 [Example 1001, 7-Fluoro-1-{2-[6-(4-hydroxy-3-trifluoromethyl-phenyl)-pyrimidin-4-ylamino]-ethyl}-4-methoxy-1H-indole-2-carbonitrile] | 6 | 7 | – | –
Cc1c(F)cc2c(cc(C)n2CCNc2cc(-c3ccc(C(=O)O)c(CC(C)C)c3)ncn2)c1F [compound 102] | – | – | 142 | 597
COc1ncc(-c2cc(NCCn3c(C#N)cc4c(OC)ccc(F)c43)ncn2)cn1 [Example 991, 7-Fluoro-4-methoxy-1-[2-(2′-methoxy-[4,5]bipyrimidinyl-6-ylamino)-ethyl]-1H-indole-2-carbonitrile] | 142 | 540 | – | –
CCOc1cc(-c2cc(NCCn3c(C#N)cc4c(OC)ccc(F)c43)ncn2)sc1C(=O)OCc1oc(=O)oc1C [Example 1047, 5-{6-[2-(2-Cyano-7-fluoro-4-methoxy-indol-1-yl)-ethylamino]-pyrimidin-4-yl}-3-ethoxy-thiophene-2-carboxylic acid 5-methyl-2-oxo-[1,3]dioxol-4-ylmethyl ester] | 5 | 3 | – | –
CCOc1cc(-c2cc(NCCn3c(C#N)cc4c(OC)cc(F)c(F)c43)ncn2)ccc1C(=O)O [Example 957, 4-{6-[2-(2-Cyano-6,7-difluoro-4-methoxy-indol-1-yl)-ethylamino]-pyrimidin-4-yl}-2-ethoxy-benzoic acid] | 56 | 54 | – | –
COc1cccc2c1cc(C)n2CCNc1cc(-c2ccc(S(N)(=O)=O)c(C(F)(F)F)c2)ncn1 [compound 380] | – | – | 58 | 677
COc1cc(F)cc2c1cc(C)n2CCNc1cc(-c2ccc(N3CCCC3=O)cc2)ncn1 [compound 317] | – | – | 320 | 873

SMILES | IC50 (PTGER2 (EP2); [1]) [nM] | IC50 (PTRGER4 (EP4); [2]) [nM] | IC50 (PTGER2 (EP2); [3]) [nM] | IC50 (PTRGER4 (EP4); [4]) [nM]
COc1ccc(F)c2c1cc(C)n2CCNc1cc(-c2ccc3cc[nH]c3c2)ncn1 [compound 68, [2-(7-Fluoro-4-methoxy-2-methyl-indol-1-yl)-ethyl]-[6-(1H-indol-6-yl)-pyrimidin-4-yl]-amine] | – | – | 24 | 388
COc1ccc(F)c2c1cc(C#N)n2CCNc1cc(-c2c(C)noc2C)ncn1 [Example 993, 1-{2-[6-(3,5-Dimethyl-isoxazol-4-yl)-pyrimidin-4-ylamino]-ethyl}-7-fluoro-4-methoxy-1H-indole-2-carbonitrile] | 80 | 344 | – | –
COc1ccc(F)c2c1cc(C#N)n2CCNc1cc(-c2ccc(O)c(Cl)c2)ncn1 [Example 867, 1-{2-[6-(3-Chloro-4-hydroxy-phenyl)-pyrimidin-4-ylamino]-ethyl}-7-fluoro-4-methoxy-1H-indole-2-carbonitrile] | 8 | 6 | – | –
Cc1cc2c(Cl)ccc(Cl)c2n1CCNc1cc(-c2ccc(C(=O)O)c(SCC(C)C)c2)ncn1 [compound 370, 4-{6-[2-(4,7-Dichloro-2-methyl-indol-1-yl)-ethylamino]-pyrimidin-4-yl}-2-isobutylsulfanyl-benzoic acid] | – | – | 35 | 992
COc1ccc(F)c2c1cc(C)n2CCNc1cc(-c2nc(C(C)(C)C)c(C(=O)O)s2)ncn1 [Example 1038, 4-tert-Butyl-2-{6-[2-(7-fluoro-4-methoxy-2-methyl-indol-1-yl)-ethylamino]-pyrimidin-4-yl}-thiazole-5-carboxylic acid] | 64 | 20 | – | –
CCNC(=O)Nc1ccc(-c2cc(NCCn3c(C#N)cc4c(OC)ccc(F)c43)ncn2)cc1OC [Example 982, 1-(4-{6-[2-(2-Cyano-7-fluoro-4-methoxy-indol-1-yl)-ethylamino]-pyrimidin-4-yl}-2-methoxy-phenyl)-3-ethyl-urea] | 18 | 3 | – | –
CCCc1cc(-c2cc(NCCn3c(C#N)cc4c(OC)ccc(F)c43)ncn2)ccc1C(=O)O [Example 947, 4-{6-[2-(2-Cyano-7-fluoro-4-methoxy-indol-1-yl)-ethylamino]-pyrimidin-4-yl}-2-propyl-benzoic acid] | 30 | 16 | – | –
Cc1ccc(F)c2c1cc(C)n2CCNc1cc(-c2ccc(N3CCCS3(=O)=O)cc2)ncn1 [compound 316] | – | – | 245 | 906
CCOc1cc(-c2cc(NCCn3c(C#N)cc4c(OC)ccc(F)c43)ncn2)sc1C(=O)NS(N)(=O)=O [Example 1029, 5-(6-((2-(2-Cyano-7-fluoro-4-methoxy-1H-indol-1-yl)ethyl)amino)pyrimidin-4-yl)-3-ethoxy-N-sulfamoylthiophene-2-carboxamide] | 4 | 6 | – | –
COc1cc(-c2cc(NCCn3c(C)cc4c(OC)ccc(F)c43)ncn2)ccc1CO [compound 130, (4-{6-[2-(7-Fluoro-4-methoxy-2-methyl-indol-1-yl)-ethylamino]-pyrimidin-4-yl}-2-methoxy-phenyl)-methanol] | – | – | 4 | 78
COc1ccc(F)c2c1cc(C)n2CCNc1cc(-c2ccc(-c3c[nH]cn3)cc2)ncn1 [compound 191, [2-(7-Fluoro-4-methoxy-2-methyl-indol-1-yl)-ethyl]-{6-[4-(1H-imidazol-4-yl)-phenyl]-pyrimidin-4-yl}-amine] | – | – | 13 | 38
CCOc1cc(-c2cc(NCCn3c(C#N)c(F)c4ccccc43)ncn2)sc1C(=O)O [Example 876, 5-{6-[2-(2-Cyano-3-fluoro-indol-1-yl)-ethylamino]-pyrimidin-4-yl}-3-ethoxy-thiophene-2-carboxylic acid] | 4 | 32 | – | –
Cc1cc2c(Cl)cc(Cl)cc2n1CCNc1cc(-c2cc(Cl)c(C(=O)O)s2)ncn1 [compound 44] | – | – | 5 | 240
N#Cc1cc2c(Cl)cc(Cl)cc2n1CCNc1cc(-c2cc(C(F)(F)F)c(C(=O)O)s2)ncn1 [Example 856, 5-{6-[2-(4,6-Dichloro-2-cyano-indol-1-yl)-ethylamino]-pyrimidin-4-yl}-3-trifluoromethyl-thiophene-2-carboxylic acid] | 8 | 52 | – | –
CCOc1cc(-c2cc(NCCn3c(C#N)cc4c(OC)cccc43)ncn2)sc1C(=O)O [Example 813, 5-{6-[2-(2-Cyano-4-methoxy-indol-1-yl)-ethylamino]-pyrimidin-4-yl}-3-ethoxy-thiophene-2-carboxylic acid] | 2 | 3 | – | –
CCc1cc(-c2cc(NCCn3c(C)cc4ccccc43)ncn2)sc1C(=O)O [compound 6] | – | – | 3 | 911
COc1cc(-c2cc(NCCn3c(C#N)cc4c(OC)ccc(F)c43)ncn2)ccc1-c1c[nH]cn1 [Example 818, 7-Fluoro-1-(2-{6-[4-(1H-imidazol-4-yl)-3-methoxy-phenyl]-pyrimidin-4-ylamino}-ethyl)-4-methoxy-1H-indole-2-carbonitrile] | 2 | 1 | – | –
